PubChem BioAssay AID624207 (Sanford-Burnham Center for Chemical Genomics, 2012)
The source made the active and inactive calls.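 How the source made its calls: active means compounds blocking the phosphatase with IC50 at or below a set limit; inactive means the rest.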

Molecular target: Tyrosine-protein phosphatase non-receptor type 5 (Homo sapiens) (UniProt P54829)
Test: PTPN5 inhibition measured colorimetrically – biochemical, colorimetric absorbance, orthogonal assay for STEP inhibitor project, dose response (AID 624207)
Details: recombinant STEP, pNPP colorimetric absorbance

Chain of Tyrosine-protein phosphatase non-receptor type 5 (Homo sapiens) (P54829 whole entry, looked up): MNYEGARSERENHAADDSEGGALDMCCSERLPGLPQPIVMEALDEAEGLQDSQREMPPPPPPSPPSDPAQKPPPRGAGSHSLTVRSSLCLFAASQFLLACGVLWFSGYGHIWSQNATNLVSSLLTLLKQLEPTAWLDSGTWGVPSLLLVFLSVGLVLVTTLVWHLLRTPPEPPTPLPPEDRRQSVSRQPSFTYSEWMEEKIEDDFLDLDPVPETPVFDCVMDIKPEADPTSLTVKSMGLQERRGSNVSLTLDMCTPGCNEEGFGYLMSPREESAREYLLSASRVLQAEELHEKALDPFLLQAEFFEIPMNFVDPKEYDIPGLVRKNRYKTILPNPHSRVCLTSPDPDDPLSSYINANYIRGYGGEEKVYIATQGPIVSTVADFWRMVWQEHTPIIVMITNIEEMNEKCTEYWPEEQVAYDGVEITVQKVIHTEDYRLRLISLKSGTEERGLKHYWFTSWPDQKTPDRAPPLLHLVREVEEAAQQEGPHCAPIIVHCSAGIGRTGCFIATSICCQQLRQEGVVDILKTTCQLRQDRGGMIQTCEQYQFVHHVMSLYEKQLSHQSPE

Row | SMILES | IC50
1 | S=C1NC2=C(CCCC2=C2SCCS2)C(c2ccccc2)N1 (centres undefined) | inactive
2 | CSc1ccc(C=NNc2ccc(S(=O)(=O)Nc3ccccc3C(=O)O)cc2[N+](=O)[O-])cc1 | 4.99 µM
3 | COc1ccc(/C=N/N=C2/NC(=O)C(CC(=O)O)S2)cc1OCc1ccc(Cl)cc1Cl (centres undefined) | 13.6 µM
4 | S=C1NC(C23CC4CC(CC(C4)C2)C3)=CC(c2ccc3c(c2)OCO3)N1 (centres undefined) | > 80 µM (inactive)
5 | O=C(NN=Cc1ccccc1O)c1cccc([N+](=O)[O-])c1 | 15.8 µM
6 | COc1ccc(OC)c(N2C(=O)[C@@H]3C(c4ccccc4Cl)=NO[C@@H]3C2=O)c1 | > 80 µM (inactive)
7 | O=C1C(=O)N(CCCO)C(c2ccc(Br)cc2)/C1=C(\O)c1ccc(Br)cc1 (centres undefined) | inactive
8 | CCOc1cc(/C=N/N=C2/NC(=O)C(CC(=O)O)S2)ccc1OCc1ccc(Cl)cc1Cl (centres undefined) | > 80 µM (inactive)
9 | CC1=C(O)C(=O)C(C2=C(O)C(=O)C(C)=C(O)C2=O)=C(O)C1=O | > 80 µM (inactive)
